From US20230027864A1, “COMPOSITIONS AND METHODS FOR DELIVERY OF AGENTS TO IMMUNE CELLS” (ModernaTX, Inc., priority 2018, published 2023)

Columns and labels:
T cells [1] = test: LNP association and GFP mRNA expression in T cells of human PBMCs; type: cell-based; details: for immune cell delivery potentiating ability in T cells, amino lipid panel: ionizable lipid component of the LNP, FIG. 30; for immune cell delivery potentiating ability in T cells, helper lipid panel: phospholipid component of the LNP, FIG. 32; for immune cell delivery potentiating ability in T cells, sterol panel: structural lipid component of the LNP, FIG. 31; for delivery and uptake by T cells, only cholesterol as structural lipid: Experiment 2, mean % cells expressing the mRNA relative to positive control (Compound X, β-sitosterol)
Experimental: (§1) In a second series of experiments, additional compounds, were tested in the LNPs for their ability to enhance delivery to T cells. For these experiments, the association of the LNP with cells and the expression of mRNA-encoding protein within the transfected cells was assessed at the cell-by-cell level. Peripheral blood mononuclear cells (PBMCs) from human donors were used. PBMCs were predominately T cells (40-60%), B cells (3-15%), and monocytes (15-35%), but also contained small numbers of other cell types. LNPs were incubated with serum or PBS for 30 minutes and then added to the PBMCs. The LNP concentration was 0.050 mg/ml, the LNP volume was 0.1 ml.
(§2) LNPs contained 0.1% Rhodamine-DOPE in addition to the other LNP components to facilitate detection. Thus, the ratios set forth in the tables below include 0.1 for the rhodamine label. For example, 50:10:10:27.9:2:0.1 AL:DSPC:chol:sterol:Cmp 428 indicates 50% amino lipid as the ionizable lipid, 10% DSPC as the phospholipid, 10% cholesterol, 27.9% phytosterol, 2% Compound 428 as the PEG lipid and 0.1% for the rhodamine-DOPE label. To prepare a non-labeled LNP, the same ratios are used except that the 0.1% rhodamine label is omitted and an additional 0.1% of structural lipid (cholesterol or cholesterol/phytosterol blend) is used (e.g., 27.9% becomes 28%).
(§3) Cells were sorted by flow cytometry into subsets based on expression of certain markers: CD3 (T cells), CD20 (B cells), and CD3-, CD20-, CD14+(Monocytes).
(§4) mRNA encoding GFP was used as a model agent to effect expression of an intracellular protein.
(§5) When conducting flow cytometry, the Y-axis was signal from the rhodamine tag on the LNP and the X-axis was the GFP signal showing expression of the protein.
(§6) The “associated” population is any rhodamine+ and/or GFP+ cell and the percent of these cells was calculated by dividing by the total number of cells. The “expression” population is any GFP+ cell and the percent of these cells was calculated by dividing by the total number of cells. The percent of associated cells expressing was obtained by dividing the % expressing cells by the % associated cells.

monocytes = test: LNP association and GFP mRNA expression in monocytes of human PBMCs; type: cell-based; details: for immune cell delivery potentiating ability in monocytes, amino lipid panel: ionizable lipid component, FIG. 37; for immune cell delivery potentiating ability in monocytes, sterol panel: structural lipid component, FIG. 38; for immune cell delivery potentiating ability in monocytes, helper lipid panel: phospholipid component, FIG. 39
Experimental: as §1, with “this Example, LNPs were made with various lipid components and at different ratios and” for “a second series of experiments, additional compounds,”, “tested” for “tested in the LNPs”, “transfect monocytes in vitro.” for “enhance delivery to T cells.”, “(40-60%)” for “(40-60%),”
as §2, §3, §4, §5, §6

splenic CD3+ T cells = test: Transfection of splenic T cells in vivo in mice; details: for capability to transfect splenic CD3+ T cells in vivo: as ionizable lipid, 0.5 mg/kg i.v., 24 hours, FIG. 36; for transfection of CD3+ T cells in vivo, only cholesterol as structural lipid: FIG. 36 lanes 6 and 8, relative to positive control LNP (Compound X, β-sitosterol)
Experimental: In this Example, LNPs were made with various lipid components identified in the in vitro screens described in Example 17 and mice were administered the LNPs encapsulating a murine OX40L-encoding mRNA. The compositions shown below in Table 26 were tested in which the ratios of the components in each composition was 50% ionizable lipid, 10% phospholipid, 38.5% structural lipid and 1.5% PEG lipid.
Mice were treated intravenously with a single injection at a dose concentration of 0.1 mg/ml and at a dose level of 0.5 mg/kg. PBS was used as a negative control.

T cells [2] = test: Additional LNPs: T cell transfection in vitro, mOX40L mRNA, labeled LNPs; type: cell-based, human; details: for immune cell delivery potentiating ability in T cells, amino lipid panel: ionizable lipid component, FIG. 43
Experimental: In this Example, additional LNPs comprising various lipid components and at different ratios were made and tested for their ability to transfect T cells in vitro. Transfection was performed as in Example 5 using LNPs encapsulating an mRNA encoding mouse OX40L. LNPs were labeled and the results were determined for the mean % cells with LNPs associated, the mean % cells expressing mOX40L and the % of LNP-associated cells expressing mOX40L, as described hereinbefore.

CCCCCCCCCOC(=O)CCCCCCCN(CCCCCCCC(=O)OC(CCCCCCCC)CCCCCCCC)CCCNS(C)(=O)=O [Compound I-109]
immune cell delivery potentiating ability in T cells, amino lipid panel (T cells [1]): exhibited immune cell delivery potentiating ability in T cells
immune cell delivery potentiating ability in monocytes, amino lipid panel (monocytes): exhibited immune cell delivery potentiating ability in monocytes

CCCCCCCCC(CC)OC(=O)CCCCCCCN(CCCCCCCC(=O)OC(CCCCCCCC)CCCCCCCC)CCCNc1c(NC)c(=O)c1=O (stereo not drawn) [Compound I-301, Heptadecan-9-yl 8-((3-((2-(methylamino)-3,4-dioxocyclobut-1-en-1-yl)amino)propyl)(8-oxo-8-(undecan-3-yloxy)octyl)amino)octanoate]
immune cell delivery potentiating ability in T cells, amino lipid panel (T cells [1]): exhibited immune cell delivery potentiating ability in T cells
capability to transfect splenic CD3+ T cells in vivo (splenic CD3+ T cells): even higher capability to transfect splenic CD3+ T cells in vivo than the positive control LNP containing Compound X
immune cell delivery potentiating ability in T cells, amino lipid panel (T cells [2]): exhibited immune cell delivery potentiating ability in T cells

CC[C@H](/C=C/[C@@H](C)[C@H]1CC[C@H]2[C@@H]3CC=C4C[C@@H](O)CC[C@]4(C)[C@H]3CC[C@]12C)C(C)C [stigmasterol, reference compound]
immune cell delivery potentiating ability in monocytes, sterol panel (monocytes): exhibited immune cell delivery potentiating ability in monocytes

CCCCCCCC/C=C\CCCCCCCC(=O)OC[C@H](COP(=O)([O-])OCC[N+](C)(C)C)OC(=O)CCCCCCC/C=C\CCCCCCCC [DOPC, 1,2-dioleoyl-sn-glycero-3-phosphocholine, reference compound]
immune cell delivery potentiating ability in monocytes, helper lipid panel (monocytes): exhibited immune cell delivery potentiating ability in monocytes

CCCCCCCCCCCCCC(=O)OCC(COP(=O)(O)OCCN)OC(=O)CCCCCCCCCCCCC (stereo not drawn) [DMPE]
immune cell delivery potentiating ability in T cells, helper lipid panel (T cells [1]): exhibited immune cell delivery potentiating ability in T cells
immune cell delivery potentiating ability in monocytes, helper lipid panel (monocytes): exhibited immune cell delivery potentiating ability in monocytes

CC[C@H](CC[C@@H](C)[C@H]1CC[C@H]2[C@@H]3CC[C@H]4C[C@@H](O)CC[C@]4(C)[C@H]3CC[C@]12C)C(C)C [β-sitostanol]
immune cell delivery potentiating ability in T cells, sterol panel (T cells [1]): exhibited immune cell delivery potentiating ability in T cells
immune cell delivery potentiating ability in monocytes, sterol panel (monocytes): exhibited immune cell delivery potentiating ability in monocytes

CCCCCCCCCOC(=O)CCCCCCCN(CCCCCCCOC(=O)C(CCCCCCCC)CCCCCCCC)CCCNc1c(NC)c(=O)c1=O [Compound I-326]
delivery and uptake by T cells, only cholesterol as structural lipid (T cells [1]): effective at potentiating delivery and uptake by T cells
immune cell delivery potentiating ability in T cells, amino lipid panel (T cells [1]): exhibited immune cell delivery potentiating ability in T cells
transfection of CD3+ T cells in vivo, only cholesterol as structural lipid (splenic CD3+ T cells): effective at potentiating transfecting CD3+ T cells in vivo
capability to transfect splenic CD3+ T cells in vivo (splenic CD3+ T cells): even higher capability to transfect splenic CD3+ T cells in vivo than the positive control LNP containing Compound X
immune cell delivery potentiating ability in T cells, amino lipid panel (T cells [2]): exhibited immune cell delivery potentiating ability in T cells

CCCCCCCCCOC(=O)CCCCCCCN(CCCCCCCC(=O)OC(CCCCCCCC)CCCCCCCC)CCCNC(=O)OC [Compound I-181]
immune cell delivery potentiating ability in T cells, amino lipid panel (T cells [1]): exhibited immune cell delivery potentiating ability in T cells
immune cell delivery potentiating ability in monocytes, amino lipid panel (monocytes): exhibited immune cell delivery potentiating ability in monocytes
immune cell delivery potentiating ability in T cells, amino lipid panel (T cells [2]): exhibited immune cell delivery potentiating ability in T cells

CCCCCCCCC(CCCCCCCC)OC(=O)CCCCCCCN(CCCCCCCC(=O)OCC(C)CCCCCCC)CCCNc1c(NC)c(=O)c1=O (stereo not drawn) [Compound I-321]
delivery and uptake by T cells, only cholesterol as structural lipid (T cells [1]): effective at potentiating delivery and uptake by T cells
immune cell delivery potentiating ability in T cells, amino lipid panel (T cells [1]): exhibited immune cell delivery potentiating ability in T cells
transfection of CD3+ T cells in vivo, only cholesterol as structural lipid (splenic CD3+ T cells): effective at potentiating transfecting CD3+ T cells in vivo
capability to transfect splenic CD3+ T cells in vivo (splenic CD3+ T cells): even higher capability to transfect splenic CD3+ T cells in vivo than the positive control LNP containing Compound X
immune cell delivery potentiating ability in T cells, amino lipid panel (T cells [2]): exhibited immune cell delivery potentiating ability in T cells

CCCCCCCCCCC(=O)CCCCCCCN(CCCCCCCC(=O)OC(CCCCCCCC)CCCCCCCC)CCCNC(=S)N(C)C [Compound I-111]
immune cell delivery potentiating ability in T cells, amino lipid panel (T cells [1]): exhibited immune cell delivery potentiating ability in T cells
immune cell delivery potentiating ability in monocytes, amino lipid panel (monocytes): exhibited immune cell delivery potentiating ability in monocytes

CC[C@H](CC[C@@H](C)[C@H]1CC[C@H]2[C@@H]3CC=C4C[C@@H](O)CC[C@]4(C)[C@H]3CC[C@]12C)C(C)C [β-sitosterol, beta-sitosterol, reference compound]
immune cell delivery potentiating ability in T cells, sterol panel (T cells [1]): exhibited immune cell delivery potentiating ability in T cells
immune cell delivery potentiating ability in monocytes, sterol panel (monocytes): exhibited immune cell delivery potentiating ability in monocytes

CC(C)[C@H](C)CC[C@@H](C)[C@H]1CC[C@H]2[C@@H]3CC=C4C[C@@H](O)CC[C@]4(C)[C@H]3CC[C@]12C [camposterol]
immune cell delivery potentiating ability in T cells, sterol panel (T cells [1]): exhibited immune cell delivery potentiating ability in T cells
immune cell delivery potentiating ability in monocytes, sterol panel (monocytes): exhibited immune cell delivery potentiating ability in monocytes

CCCCCCCCCCCCCCCCCC(=O)OCC(COP(=O)([O-])OCC[N+]1(C)CCOCC1)OC(=O)CCCCCCCCCCCCCCCCC (stereo not drawn) [Compound H-409]
immune cell delivery potentiating ability in T cells, helper lipid panel (T cells [1]): exhibited immune cell delivery potentiating ability in T cells
immune cell delivery potentiating ability in monocytes, helper lipid panel (monocytes): exhibited immune cell delivery potentiating ability in monocytes
immune cell delivery potentiating ability in T cells, helper lipid panel (T cells [2]; phospholipid component, FIG. 45): exhibited immune cell delivery potentiating ability in T cells

CCCCCCCCCOC(=O)CCCCCCCN(CCCCCCCC(=O)OC(CCCCCCCC)CCCCCCCC)CCCNc1c(NC)c(=O)c1=O [Compound I-182, Heptadecan-9-yl 8-((3-((2-(methylamino)-3,4-dioxocyclobut-1-en-1-yl)amino)propyl)(8-(nonyloxy)-8-oxooctyl)amino)octanoate]
immune cell delivery potentiating ability in T cells, amino lipid panel (T cells [1]): exhibited immune cell delivery potentiating ability in T cells
immune cell delivery potentiating ability in monocytes, amino lipid panel (monocytes): exhibited immune cell delivery potentiating ability in monocytes
immune cell delivery potentiating ability in T cells, amino lipid panel (T cells [2]): exhibited immune cell delivery potentiating ability in T cells
